Some targets named below: Histamine H1 receptor (Cavia porcellus, UniProt P31389); D(2) dopamine receptor (Homo sapiens, UniProt P14416); D(3) dopamine receptor (Homo sapiens, UniProt P35462).
For assay [1], the target named is 5-hydroxytryptamine receptor 2A (Homo sapiens, UniProt P28223).
Assay [2] deals with 5-hydroxytryptamine receptor 1E (Homo sapiens, UniProt P28566).
Assay [3] deals with T1, 5-hydroxytryptamine receptor 3A (Rattus norvegicus, UniProt P35563).
T1 sequence (P35563 whole entry): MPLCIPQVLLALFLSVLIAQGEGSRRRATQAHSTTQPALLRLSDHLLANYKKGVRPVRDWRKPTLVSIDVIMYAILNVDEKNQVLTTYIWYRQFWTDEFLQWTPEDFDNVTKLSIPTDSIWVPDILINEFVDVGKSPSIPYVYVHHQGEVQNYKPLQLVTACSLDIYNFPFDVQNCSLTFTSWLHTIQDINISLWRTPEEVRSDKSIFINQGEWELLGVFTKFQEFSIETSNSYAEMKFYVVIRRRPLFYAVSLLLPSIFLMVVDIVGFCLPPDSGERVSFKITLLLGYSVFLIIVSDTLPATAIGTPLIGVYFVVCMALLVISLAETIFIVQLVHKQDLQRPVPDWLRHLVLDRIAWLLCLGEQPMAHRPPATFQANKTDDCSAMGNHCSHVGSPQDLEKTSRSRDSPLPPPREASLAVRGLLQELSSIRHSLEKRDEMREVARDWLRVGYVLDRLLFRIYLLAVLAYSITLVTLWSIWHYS

Assay [4] addresses 5-hydroxytryptamine receptor 1D (Cavia porcellus, UniProt Q60484).
The target of a further assay is T2, D(4) dopamine receptor (Homo sapiens, UniProt P21917).
T2 sequence (P21917 whole entry): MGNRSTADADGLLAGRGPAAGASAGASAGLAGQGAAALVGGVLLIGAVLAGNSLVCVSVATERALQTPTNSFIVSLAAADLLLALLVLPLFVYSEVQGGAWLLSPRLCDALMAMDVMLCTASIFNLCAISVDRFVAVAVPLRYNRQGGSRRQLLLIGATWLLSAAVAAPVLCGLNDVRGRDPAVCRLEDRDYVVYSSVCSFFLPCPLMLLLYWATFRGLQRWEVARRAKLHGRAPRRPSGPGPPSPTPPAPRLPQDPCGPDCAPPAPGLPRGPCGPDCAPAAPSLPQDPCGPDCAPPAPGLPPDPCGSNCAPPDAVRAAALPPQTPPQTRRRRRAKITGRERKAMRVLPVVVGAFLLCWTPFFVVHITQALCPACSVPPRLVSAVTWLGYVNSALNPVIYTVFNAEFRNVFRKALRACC

A further assay deals with T3, Adenosine receptor A1 (Rattus norvegicus, UniProt P25099).
T3 sequence (P25099 whole entry): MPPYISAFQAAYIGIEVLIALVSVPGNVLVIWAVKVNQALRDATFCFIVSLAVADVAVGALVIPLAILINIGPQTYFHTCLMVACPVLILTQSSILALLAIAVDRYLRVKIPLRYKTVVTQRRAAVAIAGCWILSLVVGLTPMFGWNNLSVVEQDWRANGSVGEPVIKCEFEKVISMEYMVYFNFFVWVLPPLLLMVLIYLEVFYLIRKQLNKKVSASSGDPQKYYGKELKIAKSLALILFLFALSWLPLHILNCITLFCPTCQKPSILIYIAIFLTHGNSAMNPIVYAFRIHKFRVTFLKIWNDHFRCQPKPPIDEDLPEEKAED

Assay [5] deals with T4, 5-hydroxytryptamine receptor 1F (Homo sapiens, UniProt P30939).
T4 sequence (P30939 whole entry): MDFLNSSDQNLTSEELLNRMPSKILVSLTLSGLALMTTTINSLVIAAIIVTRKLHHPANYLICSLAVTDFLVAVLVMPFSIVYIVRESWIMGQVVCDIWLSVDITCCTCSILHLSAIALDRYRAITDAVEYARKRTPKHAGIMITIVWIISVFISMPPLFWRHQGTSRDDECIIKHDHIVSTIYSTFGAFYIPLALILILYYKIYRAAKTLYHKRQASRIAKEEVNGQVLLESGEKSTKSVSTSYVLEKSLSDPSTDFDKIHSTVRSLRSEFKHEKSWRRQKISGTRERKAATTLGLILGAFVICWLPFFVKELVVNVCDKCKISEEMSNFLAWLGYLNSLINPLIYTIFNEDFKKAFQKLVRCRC

The target in assay [6] is 5-hydroxytryptamine receptor 2B (Rattus norvegicus, UniProt P30994).
Assay [7] deals with 5-hydroxytryptamine receptor 7 (Homo sapiens, UniProt P34969).
For assay [8], the target named is T5, Alpha-1A adrenergic receptor (Rattus norvegicus, UniProt P43140).
T5 sequence (P43140 whole entry): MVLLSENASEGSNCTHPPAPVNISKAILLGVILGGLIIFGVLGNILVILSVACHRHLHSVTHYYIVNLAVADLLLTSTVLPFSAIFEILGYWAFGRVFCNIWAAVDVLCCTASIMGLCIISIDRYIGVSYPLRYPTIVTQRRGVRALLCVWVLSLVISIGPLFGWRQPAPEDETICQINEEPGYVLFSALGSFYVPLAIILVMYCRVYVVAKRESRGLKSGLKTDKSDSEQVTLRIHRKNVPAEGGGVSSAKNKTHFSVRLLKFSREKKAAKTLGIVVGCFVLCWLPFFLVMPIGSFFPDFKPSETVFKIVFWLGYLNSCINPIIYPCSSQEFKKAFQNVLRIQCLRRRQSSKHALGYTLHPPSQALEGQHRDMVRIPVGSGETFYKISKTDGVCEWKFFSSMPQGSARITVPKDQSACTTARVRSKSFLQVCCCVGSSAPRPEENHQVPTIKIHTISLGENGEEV

Assay [9] concerns the target Gamma-aminobutyric acid receptor subunit alpha-1 (Rattus norvegicus, UniProt P62813).

Molecules are shown by their SMILES.

Sequence of Histamine H1 receptor (P31389 whole entry): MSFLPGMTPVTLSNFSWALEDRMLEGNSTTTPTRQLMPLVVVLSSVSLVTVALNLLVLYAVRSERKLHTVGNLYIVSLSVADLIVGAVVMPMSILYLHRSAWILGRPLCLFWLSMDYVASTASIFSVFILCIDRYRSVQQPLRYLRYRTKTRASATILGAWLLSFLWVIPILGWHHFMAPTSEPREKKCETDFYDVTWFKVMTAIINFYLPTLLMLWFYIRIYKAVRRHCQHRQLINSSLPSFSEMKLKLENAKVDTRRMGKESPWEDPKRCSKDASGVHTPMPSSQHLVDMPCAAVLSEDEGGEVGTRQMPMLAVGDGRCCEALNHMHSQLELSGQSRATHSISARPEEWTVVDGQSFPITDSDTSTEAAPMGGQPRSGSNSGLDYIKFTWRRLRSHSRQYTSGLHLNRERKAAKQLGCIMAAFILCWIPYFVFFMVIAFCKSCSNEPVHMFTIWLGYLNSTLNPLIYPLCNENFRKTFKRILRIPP
Sequence of Gamma-aminobutyric acid receptor subunit alpha-1 (P62813 whole entry): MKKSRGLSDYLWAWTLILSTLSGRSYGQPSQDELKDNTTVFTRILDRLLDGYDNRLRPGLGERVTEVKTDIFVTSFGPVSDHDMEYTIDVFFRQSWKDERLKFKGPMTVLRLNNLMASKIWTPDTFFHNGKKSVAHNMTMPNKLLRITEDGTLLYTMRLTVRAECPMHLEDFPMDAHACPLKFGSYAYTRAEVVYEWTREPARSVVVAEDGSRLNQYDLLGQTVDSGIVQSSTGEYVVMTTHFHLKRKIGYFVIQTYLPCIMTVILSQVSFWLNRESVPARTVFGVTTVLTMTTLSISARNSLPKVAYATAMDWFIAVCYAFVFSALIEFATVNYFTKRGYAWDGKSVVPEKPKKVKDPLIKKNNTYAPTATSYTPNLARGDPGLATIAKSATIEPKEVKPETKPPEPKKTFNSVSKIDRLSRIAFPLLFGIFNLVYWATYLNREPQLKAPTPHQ
Sequence of D(2) dopamine receptor (P14416 whole entry): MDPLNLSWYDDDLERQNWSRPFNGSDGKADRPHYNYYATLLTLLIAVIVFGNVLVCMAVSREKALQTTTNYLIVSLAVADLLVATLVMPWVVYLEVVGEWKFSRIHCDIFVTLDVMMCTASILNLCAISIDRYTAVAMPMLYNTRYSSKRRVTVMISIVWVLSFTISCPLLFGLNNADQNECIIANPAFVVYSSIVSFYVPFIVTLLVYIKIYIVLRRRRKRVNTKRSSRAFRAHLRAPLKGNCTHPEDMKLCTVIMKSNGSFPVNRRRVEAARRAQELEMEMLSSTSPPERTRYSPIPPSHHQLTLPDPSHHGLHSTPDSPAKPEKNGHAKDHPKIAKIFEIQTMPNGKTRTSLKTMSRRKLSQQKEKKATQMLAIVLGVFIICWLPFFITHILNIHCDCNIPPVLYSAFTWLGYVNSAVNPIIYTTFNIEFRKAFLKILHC
Sequence of 5-hydroxytryptamine receptor 1D (Q60484 whole entry): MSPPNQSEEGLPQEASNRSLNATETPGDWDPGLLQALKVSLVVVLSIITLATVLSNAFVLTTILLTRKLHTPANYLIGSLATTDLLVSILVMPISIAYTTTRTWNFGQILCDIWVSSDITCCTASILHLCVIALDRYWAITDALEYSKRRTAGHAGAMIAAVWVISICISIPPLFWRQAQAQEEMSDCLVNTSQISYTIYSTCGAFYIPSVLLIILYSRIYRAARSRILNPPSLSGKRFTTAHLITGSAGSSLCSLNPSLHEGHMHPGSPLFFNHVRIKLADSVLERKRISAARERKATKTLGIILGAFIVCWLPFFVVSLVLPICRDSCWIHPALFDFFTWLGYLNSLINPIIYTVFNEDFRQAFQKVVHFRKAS
Sequence of 5-hydroxytryptamine receptor 2A (P28223 whole entry): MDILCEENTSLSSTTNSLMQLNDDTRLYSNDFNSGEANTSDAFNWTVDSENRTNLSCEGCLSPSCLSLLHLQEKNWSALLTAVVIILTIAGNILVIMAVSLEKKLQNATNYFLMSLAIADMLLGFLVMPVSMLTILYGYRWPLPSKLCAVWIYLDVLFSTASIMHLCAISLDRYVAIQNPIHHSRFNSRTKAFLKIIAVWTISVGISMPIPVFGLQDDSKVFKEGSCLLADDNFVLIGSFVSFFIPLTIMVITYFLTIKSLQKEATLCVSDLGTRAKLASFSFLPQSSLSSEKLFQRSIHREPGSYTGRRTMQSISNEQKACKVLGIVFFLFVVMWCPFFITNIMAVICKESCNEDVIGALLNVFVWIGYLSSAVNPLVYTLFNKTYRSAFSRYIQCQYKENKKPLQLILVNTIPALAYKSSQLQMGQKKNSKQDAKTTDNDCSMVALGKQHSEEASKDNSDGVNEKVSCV
Sequence of 5-hydroxytryptamine receptor 2B (P30994 whole entry): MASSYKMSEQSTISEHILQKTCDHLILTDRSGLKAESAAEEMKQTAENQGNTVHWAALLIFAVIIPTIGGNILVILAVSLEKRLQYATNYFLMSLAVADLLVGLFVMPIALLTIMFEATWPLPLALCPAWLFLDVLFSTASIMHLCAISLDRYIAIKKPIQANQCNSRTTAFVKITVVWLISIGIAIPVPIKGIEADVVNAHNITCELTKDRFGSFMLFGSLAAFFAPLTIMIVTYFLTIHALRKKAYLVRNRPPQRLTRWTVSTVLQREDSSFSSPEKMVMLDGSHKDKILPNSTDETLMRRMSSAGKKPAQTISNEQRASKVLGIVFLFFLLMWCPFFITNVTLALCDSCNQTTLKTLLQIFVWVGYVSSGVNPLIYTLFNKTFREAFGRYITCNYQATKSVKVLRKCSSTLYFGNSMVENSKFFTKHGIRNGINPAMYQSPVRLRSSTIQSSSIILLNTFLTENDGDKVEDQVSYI
Sequence of D(3) dopamine receptor (P35462 as listed by the source): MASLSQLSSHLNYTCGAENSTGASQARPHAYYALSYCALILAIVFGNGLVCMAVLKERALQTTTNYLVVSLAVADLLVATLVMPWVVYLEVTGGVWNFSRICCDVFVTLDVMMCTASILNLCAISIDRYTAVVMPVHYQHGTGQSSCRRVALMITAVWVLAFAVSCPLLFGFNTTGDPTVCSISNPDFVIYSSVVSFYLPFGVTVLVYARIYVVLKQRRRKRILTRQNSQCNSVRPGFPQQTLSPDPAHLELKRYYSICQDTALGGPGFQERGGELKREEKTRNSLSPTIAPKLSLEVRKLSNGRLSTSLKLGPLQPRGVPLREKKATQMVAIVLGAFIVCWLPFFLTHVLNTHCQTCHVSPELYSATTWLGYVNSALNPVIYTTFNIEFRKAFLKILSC
Sequence of 5-hydroxytryptamine receptor 7 (P34969 whole entry): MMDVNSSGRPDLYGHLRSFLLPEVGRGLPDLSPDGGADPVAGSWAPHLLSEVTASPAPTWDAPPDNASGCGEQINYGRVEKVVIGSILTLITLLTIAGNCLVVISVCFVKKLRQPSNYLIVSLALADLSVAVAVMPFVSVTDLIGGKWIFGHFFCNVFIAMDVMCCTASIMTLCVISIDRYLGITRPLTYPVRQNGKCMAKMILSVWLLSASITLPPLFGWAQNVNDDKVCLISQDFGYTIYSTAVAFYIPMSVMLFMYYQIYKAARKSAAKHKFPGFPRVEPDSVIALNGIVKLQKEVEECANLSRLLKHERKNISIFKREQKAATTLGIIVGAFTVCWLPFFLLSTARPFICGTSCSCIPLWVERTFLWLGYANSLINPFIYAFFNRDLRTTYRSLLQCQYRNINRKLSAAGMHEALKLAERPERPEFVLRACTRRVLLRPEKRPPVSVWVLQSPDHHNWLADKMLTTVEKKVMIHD
Sequence of 5-hydroxytryptamine receptor 1E (P28566 whole entry): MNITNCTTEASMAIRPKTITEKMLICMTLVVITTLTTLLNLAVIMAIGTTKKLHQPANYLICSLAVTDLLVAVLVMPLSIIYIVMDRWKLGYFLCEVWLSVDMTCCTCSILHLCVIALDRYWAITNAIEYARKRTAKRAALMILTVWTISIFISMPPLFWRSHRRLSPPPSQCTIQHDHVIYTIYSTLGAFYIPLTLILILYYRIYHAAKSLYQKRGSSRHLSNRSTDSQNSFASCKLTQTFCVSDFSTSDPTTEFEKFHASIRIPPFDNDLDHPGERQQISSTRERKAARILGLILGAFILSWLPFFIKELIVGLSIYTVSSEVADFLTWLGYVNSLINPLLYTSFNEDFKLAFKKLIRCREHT

On to `Cn1ccc2cc3c(cc21)CCN3C(=O)Nc1cccnc1`, for which the Ki was 1.66 µM in assay [1]; 5.01 µM in assay [2]; > 10 µM on Histamine H1 receptor; > 10 µM in assay [3]; > 10 µM on D(2) dopamine receptor; 1 µM in assay [4]. For the same compound, the Ki at D(4) dopamine receptor is > 10 µM; at Adenosine receptor A1 it was > 10 µM; in assay [5] it was 5.01 µM; in assay [6], 0.00129 µM; in assay [7], 1 µM; in assay [8] it was > 10 µM. The Ki (in assay [9]; at D(3) dopamine receptor) was > 10 µM each time.

Values taken from BindingDB's records for doi:10.1111/j.1476-5381.1996.tb15208.x (Smithkline Beecham Pharmaceuticals, 1996).
